# Reference: patent US10562887B2, “Triazolones and tetrazolones as inhibitors of ROCK” (BRISTOL-MYERS SQUIBB COMPANY, priority 2016, dated 2020)
# Biological target: ROCK2 (Homo sapiens (Human), UniProt O75116)
# Test: ROCK2 assay (peptide phosphorylation, LABCHIP 3000 Reader)
# Assay type: biochemical
# Conditions: 5 μM ATP, 1.5 μM peptide substrate
# Experimental: The effectiveness of compounds of the present invention as ROCK inhibitors can be determined in a 30 μL, assay containing 20 mM HEPES, pH 7.5, 20 mM MgCl2, 0.015% Brij-35, 4 mM DTT, 5 μM ATP and 1.5 μM peptide substrate (FITC-AHA-AKRRRLSSLRA-OH). Compounds were dissolved in DMSO so that the final concentration of DMSO was <2%, and the reaction was initiated with Rho kinase variants. After incubation, the reaction was terminated by the addition of EDTA and the phosphorylated and non-phosphorylated peptides separated using a LABCHIP® 3000 Reader (Caliper Life Sciences). […] Compounds were tested in dose-response format, and the inhibition of kinase activity was calculated at each concentration of compound. The inhibition data were fit using a curve-fitting program to determine the IC50; i.e., the concentration of compound required to inhibit 50% of kinase activity.
# Representative Examples were tested in the ROCK2 assay described above and found having ROCK2 inhibitory activity.
# Chain of ROCK2 (O75116 whole entry, species assumed): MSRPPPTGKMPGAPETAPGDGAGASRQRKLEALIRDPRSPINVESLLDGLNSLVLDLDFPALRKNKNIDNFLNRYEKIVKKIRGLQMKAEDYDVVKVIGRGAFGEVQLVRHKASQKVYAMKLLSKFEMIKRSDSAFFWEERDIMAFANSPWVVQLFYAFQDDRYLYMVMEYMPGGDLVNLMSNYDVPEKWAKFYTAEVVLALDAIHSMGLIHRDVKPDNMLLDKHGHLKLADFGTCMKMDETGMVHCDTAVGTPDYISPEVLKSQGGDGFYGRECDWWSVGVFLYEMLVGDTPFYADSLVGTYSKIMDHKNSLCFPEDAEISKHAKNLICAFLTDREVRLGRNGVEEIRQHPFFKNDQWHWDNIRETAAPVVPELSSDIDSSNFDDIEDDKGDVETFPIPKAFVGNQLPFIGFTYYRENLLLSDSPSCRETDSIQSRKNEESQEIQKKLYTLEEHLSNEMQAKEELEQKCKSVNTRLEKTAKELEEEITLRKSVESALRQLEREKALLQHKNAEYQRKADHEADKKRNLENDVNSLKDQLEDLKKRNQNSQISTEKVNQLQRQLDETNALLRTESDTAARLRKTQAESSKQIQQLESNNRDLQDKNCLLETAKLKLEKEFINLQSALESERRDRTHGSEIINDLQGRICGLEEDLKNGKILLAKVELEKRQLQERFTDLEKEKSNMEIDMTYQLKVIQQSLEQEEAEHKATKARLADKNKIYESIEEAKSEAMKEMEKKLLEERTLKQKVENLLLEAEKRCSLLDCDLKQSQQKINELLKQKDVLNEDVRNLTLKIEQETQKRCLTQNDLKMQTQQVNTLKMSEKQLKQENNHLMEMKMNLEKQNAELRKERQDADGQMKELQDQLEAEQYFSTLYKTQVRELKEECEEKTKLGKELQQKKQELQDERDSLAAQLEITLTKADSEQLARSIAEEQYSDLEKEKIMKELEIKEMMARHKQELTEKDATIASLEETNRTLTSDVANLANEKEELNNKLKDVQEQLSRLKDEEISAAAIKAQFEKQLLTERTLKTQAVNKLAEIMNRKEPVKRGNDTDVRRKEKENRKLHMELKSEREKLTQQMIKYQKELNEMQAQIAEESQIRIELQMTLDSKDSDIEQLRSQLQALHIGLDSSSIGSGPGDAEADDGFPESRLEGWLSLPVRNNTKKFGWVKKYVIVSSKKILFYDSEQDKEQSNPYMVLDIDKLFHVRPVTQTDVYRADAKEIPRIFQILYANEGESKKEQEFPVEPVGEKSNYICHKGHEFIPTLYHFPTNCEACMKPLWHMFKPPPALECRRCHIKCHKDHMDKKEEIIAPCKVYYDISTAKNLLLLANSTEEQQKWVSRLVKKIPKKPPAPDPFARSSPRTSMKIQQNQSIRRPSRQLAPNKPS
row,Compound,IC50
1,"COc1cccc(C(C)n2cnn(-c3ccc(-c4cn[nH]c4)cc3)c2=O)c1 (single isomer, unassigned) [Example 47, 1-(4-(1H-pyrazol-4-yl)phenyl)-4-(1-(3-methoxyphenyl)ethyl)-1H-1,2,4-triazol-5(4H)-one]",5 to 50 nM
2,"COc1cccc(C(C)n2cnn(-c3ccc(-c4cn[nH]c4)cc3)c2=O)c1 (single isomer, unassigned) [Example 48, 1-(4-(1H-pyrazol-4-yl)phenyl)-4-(1-(3-methoxyphenyl)ethyl)-1H-1,2,4-triazol-5(4H)-one]",< 5 nM
3,"COc1cccc(C(C)n2c(C)nn(-c3ccc(-c4cn[nH]c4)cc3)c2=O)c1 (single isomer, unassigned) [Example 118, 1-(4-(1H-pyrazol-4-yl)phenyl)-4-(1-(3-methoxyphenyl)ethyl)-3-methyl-1H-1,2,4-triazol-5(4H)-one]",5 to 50 nM
4,"COc1cccc(C(C)n2c(C)nn(-c3ccc(-c4cn[nH]c4)cc3)c2=O)c1 (single isomer, unassigned) [Example 119, 1-(4-(1H-pyrazol-4-yl)phenyl)-4-(1-(3-methoxyphenyl)ethyl)-3-methyl-1H-1,2,4-triazol-5(4H)-one]",5 to 50 nM
5,"CC(O)c1nn(-c2ccc(-c3cn[nH]c3)cc2)c(=O)n1Cc1ccccc1 (single isomer, unassigned) [Example 140, 1-(4-(1H-pyrazol-4-yl)phenyl)-4-benzyl-3-(1-hydroxyethyl)-1H-1,2,4-triazol-5(4H)-one]",5 to 50 nM
6,"CC(O)c1nn(-c2ccc(-c3cn[nH]c3)cc2)c(=O)n1Cc1ccccc1 (single isomer, unassigned) [Example 141, 1-(4-(1H-pyrazol-4-yl)phenyl)-4-benzyl-3-(1-hydroxyethyl)-1H-1,2,4-triazol-5(4H)-one]",5 to 50 nM
7,"COc1cc(Cn2c(C(C)O)nn(-c3ccc(-c4cn[nH]c4)cc3)c2=O)cc(OC)c1 (single isomer, unassigned) [Example 147, 1-(4-(1H-pyrazol-4-yl)phenyl)-4-(3,5-dimethoxybenzyl)-3-(1-hydroxyethyl)-1H-1,2,4-triazol-5(4H)-one]",50 to 250 nM
8,"O=c1n(-c2ccc(-c3cn[nH]c3)cc2)cnn1Cc1cccc(F)c1 [Example 1, 4-(4-(1H-pyrazol-4-yl)phenyl)-1-(3-fluorobenzyl)-1H-1,2,4-triazol-5(4H)-one]",50 to 250 nM
9,"O=c1n(-c2ccc(-c3cn[nH]c3)cc2)cnn1Cc1ccccc1 [Example 2, 4-(4-(1H-pyrazol-4-yl)phenyl)-1-benzyl-1H-1,2,4-triazol-5(4H)-one]",50 to 250 nM
10,"COc1cccc(Cn2ncn(-c3ccc(-c4cn[nH]c4)cc3)c2=O)c1 [Example 3, 4-(4-(1H-pyrazol-4-yl)phenyl)-1-(3-methoxybenzyl)-1H-1,2,4-triazol-5(4H)-one]",50 to 250 nM
11,"O=c1n(-c2ccc(-c3cn[nH]c3)cc2)cnn1Cc1cc(F)ccc1F [Example 4, 4-(4-(1H-pyrazol-4-yl)phenyl)-1-(2,5-difluorobenzyl)-1H-1,2,4-triazol-5(4H)-one]",250 to 2000 nM
12,"COc1cc(-n2cnn(Cc3ccccc3)c2=O)ccc1-c1cn[nH]c1 [Example 5, 1-benzyl-4-(3-methoxy-4-(1H-pyrazol-4-yl)phenyl)-1H-1,2,4-triazol-5(4H)-one]",50 to 250 nM
13,"COc1cccc(Cn2ncn(-c3ccc(-c4cn[nH]c4)c(OC)c3)c2=O)c1 [Example 6, 4-(3-methoxy-4-(1H-pyrazol-4-yl)phenyl)-1-(3-methoxybenzyl)-1H-1,2,4-triazol-5(4H)-one]",5 to 50 nM
14,"COc1cc(-n2cnn(Cc3cccc(F)c3)c2=O)ccc1-c1cn[nH]c1 [Example 7, 1-(3-fluorobenzyl)-4-(3-methoxy-4-(1H-pyrazol-4-yl)phenyl)-1H-1,2,4-triazol-5(4H)-one]",50 to 250 nM
15,"COc1cc(-n2cnn(C(C)c3ccccc3)c2=O)ccc1-c1cn[nH]c1 (centres unmarked) [Example 8, 4-(3-methoxy-4-(1H-pyrazol-4-yl)phenyl)-1-(1-phenylethyl)-1H-1,2,4-triazol-5(4H)-one]",250 to 2000 nM
16,"COc1cc(-n2cnn(CCc3ccccc3)c2=O)ccc1-c1cn[nH]c1 [Example 9, 4-(3-methoxy-4-(1H-pyrazol-4-yl)phenyl)-1-phenethyl-1H-1,2,4-triazol-5(4H)-one]",50 to 250 nM
17,"COc1cc(-c2cn[nH]c2)ccc1-n1cnn(Cc2ccccc2)c1=O [Example 10, 1-benzyl-4-(2-methoxy-4-(1H-pyrazol-4-yl)phenyl)-1H-1,2,4-triazol-5(4H)-one]",250 to 2000 nM
18,"COc1cccc(Cn2ncn(-c3ccc(-c4cn[nH]c4)cc3OC)c2=O)c1 [Example 11, 4-(2-methoxy-4-(1H-pyrazol-4-yl)phenyl)-1-(3-methoxybenzyl)-1H-1,2,4-triazol-5(4H)-one]",50 to 250 nM
19,"COc1cc(-c2cn[nH]c2)ccc1-n1cnn(Cc2cccc(F)c2)c1=O [Example 12, 1-(3-fluorobenzyl)-4-(2-methoxy-4-(1H-pyrazol-4-yl)phenyl)-1H-1,2,4-triazol-5(4H)-one]",50 to 250 nM

row,Compound,IC50
1,"COc1cc(-c2cn[nH]c2)ccc1-n1cnn(Cc2cc(F)ccc2F)c1=O [Example 13, 1-(2,5-difluorobenzyl)-4-(2-methoxy-4-(1H-pyrazol-4-yl)phenyl)-1H-1,2,4-triazol-5(4H)-one]",250 to 2000 nM
2,"COc1cc(-c2cn[nH]c2)ccc1-n1cnn(CCc2ccccc2)c1=O [Example 14, 4-(2-methoxy-4-(1H-pyrazol-4-yl)phenyl)-1-phenethyl-1H-1,2,4-triazol-5(4H)-one]",50 to 250 nM
3,"CC(c1ccccc1)n1ncn(-c2ccc(-c3cn[nH]c3)cc2)c1=O (centres unmarked) [Example 15, 4-(4-(1H-pyrazol-4-yl)phenyl)-1-(1-phenylethyl)-1H-1,2,4-triazol-5(4H)-one]",250 to 2000 nM
4,"COc1cc(-c2cn[nH]c2)ccc1-n1cnn(Cc2cc(F)ccc2F)c1=O [Example 16, 1-(2,5-difluorobenzyl)-4-(2-methoxy-4-(1H-pyrazol-4-yl)phenyl)-1H-1,2,4-triazol-5(4H)-one]",50 to 250 nM
5,"O=c1n(Cc2ccccc2)cnn1-c1ccc(-c2cn[nH]c2)cc1 [Example 17, 1-(4-(1H-pyrazol-4-yl)phenyl)-4-benzyl-1H-1,2,4-triazol-5(4H)-one]",5 to 50 nM
6,"COc1cccc(Cn2cnn(-c3ccc(-c4cn[nH]c4)cc3)c2=O)c1 [Example 18, 1-(4-(1H-pyrazol-4-yl)phenyl)-4-(3-methoxybenzyl)-1H-1,2,4-triazol-5(4H)-one]",< 5 nM
7,"O=c1n(Cc2cccc(F)c2)cnn1-c1ccc(-c2cn[nH]c2)cc1 [Example 19, 1-(4-(1H-pyrazol-4-yl)phenyl)-4-(3-fluorobenzyl)-1H-1,2,4-triazol-5(4H)-one]",< 5 nM
8,"O=c1n(Cc2cc(F)ccc2F)cnn1-c1ccc(-c2cn[nH]c2)cc1 [Example 20, 1-(4-(1H-pyrazol-4-yl)phenyl)-4-(2,5-difluorobenzyl)-1H-1,2,4-triazol-5(4H)-one]",5 to 50 nM
9,"COc1cc(F)cc(Cn2cnn(-c3ccc(-c4cn[nH]c4)cc3)c2=O)c1 [Example 21, 1-(4-(1H-pyrazol-4-yl)phenyl)-4-(3-fluoro-5-methoxybenzyl)-1H-1,2,4-triazol-5(4H)-one]",< 5 nM
10,"CC(c1ccccc1)n1cnn(-c2ccc(-c3cn[nH]c3)cc2)c1=O (centres unmarked) [Example 22, 1-(4-(1H-pyrazol-4-yl)phenyl)-4-(1-phenylethyl)-1H-1,2,4-triazol-5(4H)-one]",< 5 nM
11,"COc1cc(-n2ncn(Cc3ccccc3)c2=O)ccc1-c1cn[nH]c1 [Example 23, 4-benzyl-1-(3-methoxy-4-(1H-pyrazol-4-yl)phenyl)-1H-1,2,4-triazol-5(4H)-one]",< 5 nM
12,"COc1cccc(Cn2cnn(-c3ccc(-c4cn[nH]c4)c(OC)c3)c2=O)c1 [Example 24, 1-(3-methoxy-4-(1H-pyrazol-4-yl)phenyl)-4-(3-methoxybenzyl)-1H-1,2,4-triazol-5(4H)-one]",< 5 nM
13,"COc1cc(-n2ncn(Cc3cc(F)ccc3F)c2=O)ccc1-c1cn[nH]c1 [Example 25, 4-(2,5-difluorobenzyl)-1-(3-methoxy-4-(1H-pyrazol-4-yl)phenyl)-1H-1,2,4-triazol-5(4H)-one]",5 to 50 nM
14,"COc1cc(F)cc(Cn2cnn(-c3ccc(-c4cn[nH]c4)c(OC)c3)c2=O)c1 [Example 26, 4-(3-fluoro-5-methoxybenzyl)-1-(3-methoxy-4-(1H-pyrazol-4-yl)phenyl)-1H-1,2,4-triazol-5(4H)-one]",< 5 nM
15,"COc1cc(-n2ncn(C(C)c3ccccc3)c2=O)ccc1-c1cn[nH]c1 (centres unmarked) [Example 27, 1-(3-methoxy-4-(1H-pyrazol-4-yl)phenyl)-4-(1-phenylethyl)-1H-1,2,4-triazol-5(4H)-one]",< 5 nM
16,"O=c1n(Cc2ccccc2F)cnn1-c1ccc(-c2cn[nH]c2)cc1 [Example 28, 1-(4-(1H-pyrazol-4-yl)phenyl)-4-(2-fluorobenzyl)-1H-1,2,4-triazol-5(4H)-one]",5 to 50 nM
17,"O=c1n(Cc2ccccc2Cl)cnn1-c1ccc(-c2cn[nH]c2)cc1 [Example 29, 1-(4-(1H-pyrazol-4-yl)phenyl)-4-(2-chlorobenzyl)-1H-1,2,4-triazol-5(4H)-one]",5 to 50 nM
18,"COc1cc(-n2ncn(Cc3cccc(F)c3)c2=O)ccc1-c1cn[nH]c1 [Example 30, 4-(3-fluorobenzyl)-1-(3-methoxy-4-(1H-pyrazol-4-yl)phenyl)-1H-1,2,4-triazol-5(4H)-one]",< 5 nM
19,"COc1cc(-n2ncn(Cc3ccccc3F)c2=O)ccc1-c1cn[nH]c1 [Example 31, 4-(2-fluorobenzyl)-1-(3-methoxy-4-(1H-pyrazol-4-yl)phenyl)-1H-1,2,4-triazol-5(4H)-one]",5 to 50 nM
